Source: patent US10266603B2, “Targeted therapy to restore radioactive iodine transport in thyroid cancer” (The Governors of the University of Alberta, priority 2014, dated 2019)

Experiments:
Format in all cases: cell-based, human
[1] = tested on: 8305C cell line; experiment: wound-healing assay (cellular migration), 8305C; conditions: 8305C cell line expressing alpha subunit of PDGFR; after 24 and 42 hours; versus no crenolanib
Description: (§1) FIG. 8. The effect of PDGFRA blockade using a specific PDGFRA small molecule inhibitor on cellular migration using the wound-healing assay. In two separate cell lines that express the alpha subunit of PDGFR as shown in (A) 8305C cell line and BCPAP cell line in (B), the addition of crenolanib as a selective alpha inhibitor means that the percentage of open wound left after 24 and 42 hours is much higher because of slow the migration of the cells across the gap and this is highly significant. This illustrates the role of PDGFRA in mediating a more aggressive, dedifferentiated behavior for these tumors.

[2] = tested on: patient derived papillary thyroid carcinoma primary tumors; experiment: iodide transport in patient derived primary tumors; conditions: patient derived PTC primary tumors; 72 hour period
Description: FIG. 9. In the effect of PDGFRA blockade using small molecule inhibitors on iodide transport in patient derived papillary thyroid carcinoma primary tumors.

[3] = tested on: BCPAP cell line; experiment: wound-healing assay (cellular migration), BCPAP; conditions: BCPAP cell line expressing alpha subunit of PDGFR; after 24 and 42 hours; versus no crenolanib
Description: as §1

CC1(COc2ccc3c(c2)ncn3-c2ccc3cccc(N4CCC(N)CC4)c3n2)COC1 [crenolanib]
percentage of open wound left [1]: much higher
iodide uptake [2]: significant increase in iodide uptake
percentage of open wound left [3]: much higher
